Test results published in PMC8042727, “Apoptosis-like cell death upon kinetoplastid induction by compounds isolated from the brown algae Dictyota spiralis” (Parasites & Vectors, 2021).

Columns and labels:
[1] = tested on: Leishmania amazonensis promastigotes; test: DNA condensation assay (Hoechst 33342 / PI); type: cell-based; conditions: L. amazonensis promastigotes, IC90, 24 h
Protocol: Hoechst dye is a blue-fluorescent dye that stains condensed chromatin of apoptotic cells. To detect DNA condensation, the chromatin condensation/dead cell apoptosis kit was used (Invitrogen, Thermo Fisher Scientific, Waltham, MA, USA). Cells were incubated in the presence of the compounds to be tested at IC90. The IC90 values were determined using nonlinear regression of the AlamarBlue® curve. After 24 h of incubation, cells were harvested and resuspended in medium, following which 1 μl of Hoechst 33342 stock solution was added to parasites and incubated for 20 min. Results were analyzed by cell imaging using the Evos FL cell imaging system (Thermo Fisher Scientific). The experiments were repeated using a double-stain apoptosis detection kit (Hoechst 33342/PI; Thermo Fisher Scientific). […] A positive control was also tested: miltefosine (L. amazonensis) and benznidazole (T. cruzi).
DNA condensation is an important cellular event, providing evidence of apoptotic cell death. Hoechst dye is a blue-fluorescent dye that stains condensed chromatin. […] Also, using propidium iodine (PI), it is possible to distinguish dead cells, which stain red when PI penetrates the nucleus. The results of staining were evaluated using cell imaging. Different microscopy images are regrouped in Fig. 2 (for L. amazonensis) and Fig. 3 (for T. cruzi). […] A clear reduction in cell number is also evident.

[2] = tested on: Leishmania amazonensis; test: ATP level (CellTiter-Glo); type: cell-based; conditions: L. amazonensis, IC90, 24 h, relative to negative control
Protocol: The CellTiter-Glo® luminescent cell viability assay (Promega, WI, USA) was used to quantify the adenosine triphosphate (ATP) concentration. Cells of the kinetoplastid strains (for both L. amazonensis [2 × 10^6 cells/ml] and T. cruzi [5 × 10^5cells/ml]) were incubated for 24 h with the compounds to be tested, at IC90 and 26 °C. After incubation, the cells were centrifuged and resuspended in 100 μl. To this volume, we added 100 μl of the reactive in white 96-well plates. After incubation, the luminescence signal was measured using the Enspire multimode plate reader. The decrease in ATP level was expressed as a percentage relative to the negative control. Miltefosine and benznidazole were tested as the positive control for L. amazonensis and T. cruzi, respectively.

Row | Structure (SMILES) | chromatin condensation / cell death stage (Hoechst/PI staining) [1] | loss of ATP concentration [2]
1 | C=C1CC[C@@H]([C@@](C)(O)CCC=C(C)C)[C@@H](O)[C@@H]2C(C)=CC[C@@H]12 [Compound 2, dictyol E] | late apoptotic stage | 26.6%
2 | C=C(C)[C@H]1CC[C@]2(C)C[C@@H]3O[C@@]3(C)CC/C=C(\C)CC[C@@H]12 [Compound 3, 3,4-epoxy-7,18-dolabelladiene] | late apoptotic stage | –
